This test concerns the target SMARCA2 (Homo sapiens, UniProt P51531). In words: MSD SMARCA2 degradation in A549 cell line. Type of test: cell-based. The note with it: 24 h; for Dmax: A549, A549 cells; for DC50: A549 cells, read-out: SMARCA2 MSD A549 degradation 24 h: Average external-Abs DC50. The method, then:
Cells were seeded into 96-well plates (A549 cells: 2×10^4 cells/well/100 ul media) abd incubated overnight. The next day, 200 nl compound were added into the intermediate plate with Echo (Labcyte 550) from source plate containing a 3-fold serial dilution from top concentration of 1 mM. The culture medium was changed with 80 ul of fresh medium and 80 ul of 2× compound solution was added into the well to make a final concentration of 1000 nM, 333.3 nM, 111.1 nM, 37.04 nM, 12.35 nM, 4.115 nM, 1.372 nM, 0.457 nM, 0.152 nM and 0 nM (DMSO). The wells were mixed and then incubated for 24 hours. The media was aspirated from the cultures and 60 ul pre-chilled PIPA lysis buffer (Boston BioProducts BP-115D) with protease/phosphatase inhibitor (Roche 05892791001/Roche 04906837001) was added into the well to lyze the cells for 20 minutes at 4° C. The MSD plate (L15XA) was coated with 40 ul cell lysate and incubated at 4° C. overnight. The next day, the plate was washed three times with TBST (CST #9997S), 150 ul/well. The MSD plates was blocked with 150 ul blocking buffer per well and shaked for 1 hr at RT, 600 rpm. The blocking buffer was 3% Blocker A (MSD, R93BA-4) in TBST. The MSD plate was washed three times with 150 ul/well of TBST and 25 ul/well of detection antibody (Rabbit anti-SMARCA2/BRM antibody, 100 μg/ml, ab223735) was added at final concentration of 1 ug/ml diluted in 1% Blocking buffer and shaken for 1 hour at RT, 600 rpm. The MSD plate was washed three times with 150 ul/well of TBST and 25 ul/well of SULFO-TAG anti-rabbit antibody (MSD, R32AB-1) was added at final concentration of 1 ug/ml diluted in 1% Blocking buffer and shaken for 1 hour at RT, 600 rpm. The MSD plate was washed three times with 150 ul/well of TBST and 150 ul/well of 2×MSD reading buffer diluted from 4× (MSD, R92TC-2) with water was added. Lastly, the MSD instrument was read.
The letter codes for the percentage of SMARCA2 degradation after 24 hours (Dmax %) include: A (>90% degradation), B (>70-90% degradation), C (50-70% degradation), and D (<50% degradation).

The results in this text go back to US12624044B2, “SMARCA degraders and uses thereof” (Kymera Therapeutics, Inc., priority 2019, dated 2026).

As usually defined, the Dmax is the greatest extent of degradation seen. By DC50 is commonly meant the midpoint of the concentration-degradation curve.

SMARCA2, sequence (P51531 whole entry): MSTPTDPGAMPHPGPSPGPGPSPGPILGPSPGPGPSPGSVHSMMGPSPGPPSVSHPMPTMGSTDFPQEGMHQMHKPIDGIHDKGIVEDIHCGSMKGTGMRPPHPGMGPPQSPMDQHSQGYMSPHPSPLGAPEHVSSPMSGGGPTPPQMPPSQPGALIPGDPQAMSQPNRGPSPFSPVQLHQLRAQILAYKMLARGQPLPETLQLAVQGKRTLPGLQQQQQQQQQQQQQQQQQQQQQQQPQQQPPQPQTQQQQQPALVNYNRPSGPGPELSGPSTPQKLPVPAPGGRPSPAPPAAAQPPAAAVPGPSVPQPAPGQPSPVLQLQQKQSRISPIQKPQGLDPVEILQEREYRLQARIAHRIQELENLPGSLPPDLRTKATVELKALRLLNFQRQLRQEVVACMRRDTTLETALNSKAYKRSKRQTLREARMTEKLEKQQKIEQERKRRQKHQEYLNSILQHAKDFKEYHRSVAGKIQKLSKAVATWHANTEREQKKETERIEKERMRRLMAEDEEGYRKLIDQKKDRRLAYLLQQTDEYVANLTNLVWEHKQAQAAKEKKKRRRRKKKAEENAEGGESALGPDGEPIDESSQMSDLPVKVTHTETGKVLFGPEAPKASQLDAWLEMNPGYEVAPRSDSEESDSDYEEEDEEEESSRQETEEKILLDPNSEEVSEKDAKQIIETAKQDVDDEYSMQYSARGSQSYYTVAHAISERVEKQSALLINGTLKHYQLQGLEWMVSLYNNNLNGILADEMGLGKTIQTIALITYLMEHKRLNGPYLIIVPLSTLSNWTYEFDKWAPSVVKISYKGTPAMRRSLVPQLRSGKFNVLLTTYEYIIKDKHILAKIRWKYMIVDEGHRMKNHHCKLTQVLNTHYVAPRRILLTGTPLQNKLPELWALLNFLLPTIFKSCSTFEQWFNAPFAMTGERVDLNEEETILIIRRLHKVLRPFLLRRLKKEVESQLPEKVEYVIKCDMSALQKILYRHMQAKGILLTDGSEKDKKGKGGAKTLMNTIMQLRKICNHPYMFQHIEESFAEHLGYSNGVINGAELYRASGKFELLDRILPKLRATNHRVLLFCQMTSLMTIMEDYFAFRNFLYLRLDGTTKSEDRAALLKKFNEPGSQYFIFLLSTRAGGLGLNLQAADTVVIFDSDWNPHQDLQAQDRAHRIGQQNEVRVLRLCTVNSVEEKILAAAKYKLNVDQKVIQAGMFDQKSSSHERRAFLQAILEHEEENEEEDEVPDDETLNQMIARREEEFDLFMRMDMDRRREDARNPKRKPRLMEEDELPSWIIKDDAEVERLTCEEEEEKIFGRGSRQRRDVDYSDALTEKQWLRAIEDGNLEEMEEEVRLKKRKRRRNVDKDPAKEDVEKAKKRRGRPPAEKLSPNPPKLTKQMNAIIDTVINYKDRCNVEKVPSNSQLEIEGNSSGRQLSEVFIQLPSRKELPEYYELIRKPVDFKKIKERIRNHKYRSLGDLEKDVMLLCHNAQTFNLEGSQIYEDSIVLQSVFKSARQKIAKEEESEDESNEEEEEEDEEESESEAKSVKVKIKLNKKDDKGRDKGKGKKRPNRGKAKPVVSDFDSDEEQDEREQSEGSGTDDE

Turning to `Cn1c(=O)n(C2CCC(=O)NC2=O)c2ccc(CCCCCCCCCNCc3cccc(C#Cc4cc(NC(=O)Nc5cc(F)ncc5CO)ccn4)c3)cc21` (stereo not shown) [I-302, 1-(2-((3-(((9-(1-(2,6-dioxopiperidin-3-yl)-3-methyl-2-oxo-2,3-dihydro-1H-benzo[d]imidazol-5-yl)nonyl)amino)methyl)phenyl)ethynyl)pyridin-4-yl)-3-(2-fluoro-5-(hydroxymethyl)pyridin-4-yl)urea], the Dmax is less than 50% and the 50% degradation concentration (DC50) is greater than 1000 nM.
As for `Cn1c(=O)n(C2CCC(=O)NC2=O)c2ccc(CCCCCCCCCNCc3ccc(C#Cc4cc(NC(=O)Nc5cc(F)ncc5CO)ccn4)cc3)cc21` (stereo not shown) [I-303], the Dmax is less than 50% and the 50% degradation concentration (DC50) is greater than 1000 nM.
As to `CN(CCCOCCCc1cccc2c1n(C)c(=O)n2C1CCC(=O)NC1=O)Cc1ccc(C#Cc2cc(NC(=O)Nc3cc(F)ncc3CO)ccn2)cc1` (stereo not shown) [I-304], the Dmax was less than 50% and the DC50 is greater than 1000 nM.
For `Cn1c(=O)n(C2CCC(=O)NC2=O)c2cccc(CN3CCC(OC4CCN(Cc5ccc(C#Cc6cc(NC(=O)Nc7cc(F)ncc7CO)ccn6)cc5)CC4)CC3)c21` (stereo not shown) [I-305], the Dmax was less than 50% and the DC50 was greater than 1000 nM.
For `Cn1c(=O)n(C2CCC(=O)NC2=O)c2ccc(CCCOCCCCN3CCN(Cc4ccc(C#Cc5cc(NC(=O)Nc6cc(F)ncc6CO)ccn5)cc4)CC3)cc21` (stereo not shown) [I-306] the same measures were less than 50% and greater than 1000 nM.
In the case of `Cn1c(=O)n(C2CCC(=O)NC2=O)c2cccc(CCCOC3CCN(Cc4ccc(C#Cc5cc(NC(=O)Nc6cc(F)ncc6CO)ccn5)cc4)CC3)c21` (stereo not shown) [I-307], the Dmax is less than 50% and the DC50 is greater than 1000 nM.
In the case of `CN(Cc1ccc(C#Cc2cc(NC(=O)Nc3cc(F)ncc3CO)ccn2)cc1)CC1CCN(Cc2cccc3c2n(C)c(=O)n3C2CCC(=O)NC2=O)CC1` (stereo not shown) [I-308], the greatest degradation seen (Dmax) is less than 50% and the half-maximal degradation concentration (DC50) was greater than 1000 nM.
The corresponding values for `O=C1CCC(n2c(=O)oc3c(CCCOC4CCN(Cc5ccc(C#Cc6cc(NC(=O)Nc7cc(F)ncc7CO)ccn6)cc5)CC4)cccc32)C(=O)N1` (stereo not shown) [I-309] are less than 50% and greater than 1000 nM.
For `CN(Cc1ccc(C#Cc2cc(NC(=O)Nc3cc(F)ncc3CO)ccn2)cc1)C1CCN(Cc2cccc3c2n(C)c(=O)n3C2CCC(=O)NC2=O)CC1` (stereo not shown) [I-310] the same measures were less than 50% and greater than 1000 nM.
On to `CN(Cc1ccc(C#Cc2cc(NC(=O)Nc3cc(F)ncc3CO)ccn2)cc1)C1CCN(C(=O)c2cccc3c2n(C)c(=O)n3C2CCC(=O)NC2=O)CC1` (stereo not shown) [I-311], for which the Dmax is less than 50% and the 50% degradation concentration (DC50) was greater than 1000 nM.
On to `CN(CCCOCCCc1cccc2c1n(C)c(=O)n2C1CCC(=O)NC1=O)Cc1cccc(C#Cc2cc(NC(=O)Nc3cc(F)ncc3CO)ccn2)c1` (stereo not shown) [I-312], for which the Dmax is less than 50% and the DC50 was greater than 1000 nM.
Turning to `Cn1c(=O)n(C2CCC(=O)NC2=O)c2cccc(CN3CCC(OC4CCN(Cc5cccc(C#Cc6cc(NC(=O)Nc7cc(F)ncc7CO)ccn6)c5)CC4)CC3)c21` (stereo not shown) [I-313], the Dmax was less than 50% and the DC50 is greater than 1000 nM.
Turning to `Cn1c(=O)n(C2CCC(=O)NC2=O)c2ccc(CCCOCCCCN3CCN(Cc4cccc(C#Cc5cc(NC(=O)Nc6cc(F)ncc6CO)ccn5)c4)CC3)cc21` (stereo not shown) [I-314], the maximal degradation (Dmax) was less than 50% and the DC50 is greater than 1000 nM.
For `Cn1c(=O)n(C2CCC(=O)NC2=O)c2cccc(CCCOC3CCN(Cc4cccc(C#Cc5cc(NC(=O)Nc6cc(F)ncc6CO)ccn5)c4)CC3)c21` (stereo not shown) [I-315] the same measures were less than 50% and greater than 1000 nM.
Take `CN(Cc1cccc(C#Cc2cc(NC(=O)Nc3cc(F)ncc3CO)ccn2)c1)CC1CCN(Cc2cccc3c2n(C)c(=O)n3C2CCC(=O)NC2=O)CC1` (stereo not shown) [I-316]: the greatest degradation seen (Dmax) was less than 50% and the 50% degradation concentration (DC50) was greater than 1000 nM.
For `O=C1CCC(n2c(=O)oc3c(CCCOC4CCN(Cc5cccc(C#Cc6cc(NC(=O)Nc7cc(F)ncc7CO)ccn6)c5)CC4)cccc32)C(=O)N1` (stereo not shown) [I-317], the Dmax was less than 50% and the DC50 is greater than 1000 nM.
For `CN(Cc1cccc(C#Cc2cc(NC(=O)Nc3cc(F)ncc3CO)ccn2)c1)C1CCN(Cc2cccc3c2n(C)c(=O)n3C2CCC(=O)NC2=O)CC1` (stereo not shown) [I-318], the greatest degradation seen (Dmax) was less than 50% and the 50% degradation concentration (DC50) was greater than 1000 nM.
For `Cn1c(=O)n(C2CCC(=O)NC2=O)c2cccc(CN3CCC4(CCN(Cc5cccc(C#Cc6cc(NC(=O)Nc7cc(F)ncc7CO)ccn6)c5)CC4)CC3)c21` (stereo not shown) [I-319], the greatest degradation seen (Dmax) was less than 50% and the DC50 was greater than 1000 nM.
In the case of `CN(Cc1cccc(C#Cc2cc(NC(=O)Nc3cc(F)ncc3CO)ccn2)c1)C1CCN(C(=O)c2cccc3c2n(C)c(=O)n3C2CCC(=O)NC2=O)CC1` (stereo not shown) [I-320], the maximal degradation (Dmax) was less than 50% and the 50% degradation concentration (DC50) was greater than 1000 nM.
Consider `Cc1ncsc1-c1ccc(CNC(=O)[C@@H]2C[C@@H](O)CN2C(=O)[C@@H](NC(=O)[C@H]2CC[C@@H](Cc3cnc(N4C5CCC4CN(c4cc(-c6ccccc6O)nnc4N)C5)nc3)CC2)C(C)(C)C)cc1` [I-367], for which the maximal degradation (Dmax) is greater than 90% and the DC50 is less than 100 nM.
Turning to `Cc1ncsc1-c1ccc(CNC(=O)[C@@H]2C[C@@H](O)CN2C(=O)[C@@H](NC(=O)[C@H]2C[C@@H](N(C)Cc3cnc(N4C5CCC4CN(c4cc(-c6ccccc6O)nnc4N)C5)nc3)C2)C(C)(C)C)cc1` [I-370], the greatest degradation seen (Dmax) is 70 to 90% and the 50% degradation concentration (DC50) was in the range of 100 to 500 nM.
Regarding `Cc1ncsc1-c1ccc(CNC(=O)[C@@H]2C[C@@H](O)CN2C(=O)[C@@H](NC(=O)[C@H]2CC[C@@H](N(C)Cc3cnc(N4C5CCC4CN(c4cc(-c6ccccc6O)nnc4N)C5)nc3)CC2)C(C)(C)C)cc1` [I-371], the greatest degradation seen (Dmax) was greater than 90% and the DC50 was 100 to 500 nM.
Regarding `Cc1ncsc1-c1ccc(CNC(=O)[C@@H]2C[C@@H](O)CN2C(=O)[C@@H](NC(=O)[C@H]2CC[C@H](N(C)Cc3cnc(N4C5CCC4CN(c4cc(-c6ccccc6O)nnc4N)C5)nc3)CC2)C(C)(C)C)cc1` [I-372], the Dmax was in the range of 50 to 70% and the half-maximal degradation concentration (DC50) is 501 to 1000 nM.
The corresponding values for `Cc1ncsc1-c1ccc(CNC(=O)[C@@H]2C[C@@H](O)CN2C(=O)[C@@H](NC(=O)[C@H]2CC[C@@H](CN3CCC(c4cnc(N5C6CCC5CN(c5cc(-c7ccccc7O)nnc5N)C6)nc4)CC3)CC2)C(C)(C)C)cc1` [I-373] are greater than 90% and 100 to 500 nM.
Take `Cc1ncsc1-c1ccc(CNC(=O)[C@@H]2C[C@@H](O)CN2C(=O)[C@@H](NC(=O)[C@H]2C[C@@H](CN3CCC(c4cnc(N5C6CCC5CN(c5cc(-c7ccccc7O)nnc5N)C6)nc4)CC3)C2)C(C)(C)C)cc1` [I-374]: the greatest degradation seen (Dmax) is 70 to 90% and the DC50 fell in the range of 100 to 500 nM.
The corresponding values for `Cc1ncsc1-c1ccc(CNC(=O)[C@@H]2C[C@@H](O)CN2C(=O)[C@@H](NC(=O)[C@H]2C[C@H](CN3CCC(c4cnc(N5C6CCC5CN(c5cc(-c7ccccc7O)nnc5N)C6)nc4)CC3)C2)C(C)(C)C)cc1` [I-376] are 50 to 70% and 501 to 1000 nM.
For `Cc1ncsc1-c1ccc(CNC(=O)[C@@H]2C[C@@H](O)CN2C(=O)[C@@H](NC(=O)[C@H]2CC[C@@H](CCCCCN3CCC(Cn4cc(-c5cc(-c6ccccc6O)nnc5N)cn4)CC3)CC2)C(C)(C)C)cc1` [I-377] the same measures were 70 to 90% and 100 to 500 nM.
The corresponding values for `Cc1ncsc1-c1ccc(CNC(=O)[C@@H]2C[C@@H](O)CN2C(=O)[C@@H](NC(=O)[C@H]2CC[C@@H](c3ccc(CN4CCC(Cn5cc(-c6cc(-c7ccccc7O)nnc6N)cn5)CC4)cc3)CC2)C(C)(C)C)cc1` [I-379] are greater than 90% and 100 to 500 nM.
Take `Cc1ncsc1-c1ccc(CNC(=O)[C@@H]2C[C@@H](O)CN2C(=O)[C@@H](NC(=O)[C@H]2CC[C@H](c3ccc(CN4CCC(Cn5cc(-c6cc(-c7ccccc7O)nnc6N)cn5)CC4)cc3)CC2)C(C)(C)C)cc1` [I-380]: the Dmax is greater than 90% and the 50% degradation concentration (DC50) is 100 to 500 nM.
With `Cc1ncsc1-c1ccc(CNC(=O)[C@@H]2C[C@@H](O)CN2C(=O)[C@@H](NC(=O)C2CC3(CCN(CCN4CCC(Cn5cc(-c6cc(-c7ccccc7O)nnc6N)cn5)CC4)CC3)C2)C(C)(C)C)cc1` [I-381], the Dmax lay in the range of 50 to 70% and the 50% degradation concentration (DC50) was 501 to 1000 nM.
For `Cc1ncsc1-c1ccc(CNC(=O)[C@@H]2C[C@@H](O)CN2C(=O)[C@@H](NC(=O)C[C@H]2C[C@H](N3CCC(c4cnc(N5C6CCC5CN(c5cc(-c7ccccc7O)nnc5N)C6)nc4)CC3)C2)C(C)(C)C)cc1` [I-391] the same measures were greater than 90% and 100 to 500 nM.
For `Cc1ncsc1-c1ccc(CNC(=O)[C@@H]2C[C@@H](O)CN2C(=O)[C@@H](NC(=O)C[C@H]2C[C@@H](N3CCC(c4cnc(N5C6CCC5CN(c5cc(-c7ccccc7O)nnc5N)C6)nc4)CC3)C2)C(C)(C)C)cc1` [I-392] the same measures were 70 to 90% and 100 to 500 nM.
